The values that follow come from US9481667B2, “Salts and solid forms of isoquinolinones and composition comprising and methods of using the same” (Infinity Pharmaceuticals, Inc., priority 2013, dated 2016).

“Also recorded” adds a separate entry of the source. Where a name gives a salt, the structure may show the parent alone.

Format in all cases: physicochemical
Data set [1] in a line: Gravimetric vapour sorption (GVS). As to the method: Sorption isotherms were obtained using a Hiden IGASorp moisture sorption analyser, controlled by CFRSorp software. The sample temperature was maintained at 25° C. by a Huber re-circulating water bath. The humidity was controlled by mixing streams of dry and wet nitrogen, with a total flow rate of 250 ml/min. The relative humidity (RH) was measured by a calibrated Vaisala RH probe (dynamic range of 0-95% RH), located near the sample. The weight change, (mass relaxation) of the sample as a function of % RH was constantly monitored by the microbalance (accuracy ±0.001 mg). Typically 10-20 mg of sample was placed in a tared mesh stainless steel basket under ambient conditions. The sample was loaded and unloaded at 40% RH and 25° C. (typical room conditions). A moisture sorption isotherm was performed as outlined below (2 scans giving 1 complete cycle). The standard isotherm was performed at 25° C. at 10% RH intervals over a 0-90% RH range.
The software uses a least squares minimisation procedure together with a model of the mass relaxation, to predict an asymptotic value. The measured mass relaxation value must be within 5% of that predicted by the software, before the next % RH value is selected. The minimum equilibration time was set to 1 hour and the maximum to 4 hours. The sample was recovered after completion of the isotherm and re-analysed by XRPD.

Data set [2] in a line: Polymorph screen: maturation (temperature cycling RT/50° C.) in solvents. The protocol:
One of 21 solvents was added to each vial in a number of aliquots (up to 30 volumes), with shaking. All the samples were then placed under maturation between RT to 50° C. (4 hours at each temperature) for 3 days. After maturation the samples were analysed by XRPD. Clear solutions were cooled to −20° C. (freezer). If no precipitation occurred samples were evaporated at RT.
Samples were placed under maturation between RT-50° C. (4 hours cycle) for 3 days. After maturation the samples were analyzed by XRPD. Clear solutions were then cooled to −20° C. (freezer). If no precipitation occurred, samples were evaporated at RT.
Bis-Sulfuric acid salt Form 1 of Compound 1 (ca. 35 mg) was weighed into vials. The corresponding solvents and solvent mixtures were added in portions of (a total of) 5, 10, 20, and 30 volumes at 50° C., with shaking, aiming for clear solutions. After each addition, the vials were allowed to shake for 20 minutes, after which observations were made. Solutions were allowed to evaporate, whereas slurries were set for 8 hour temperature cycling maturation, between RT and 50° C., for 5 days.
The oils obtained by solvent evaporation were used for the maturation screen. Anhydrous solvents (5 volumes; 100 μL) were used in order to minimise the amount of water present. Any solutions were allowed to slowly evaporate, whereas slurries were set for 8 hour temperature cycling maturation, between RT and 50° C. After 24 hours, most oils had not mixed with the solvents, and these were scratched with a spatula, producing slurries. These were matured for a further 24 hours before performing XRPD analysis.
Amorphous free base Compound 1 (ca. 25 mg) was weighed into vials. The selected solvents and solvent mixtures (5 to 20 volumes) were added with stirring. Any solutions were allowed to slowly evaporate, whereas slurries were set for 8 hour temperature cycling maturation, between RT and 50° C., for 2 days.
Crystals were ground in order to analyse them by XRPD. Suspensions were set for temperature cycling for a total of five days after which time XRPD analysis was carried out. […] Similar to the screen in Example 20, these XRPD patterns show slight differences (FIG. 37). However, solids from both screens obtained from the same solvent show a matching XRPD pattern, also supporting that this is a series of isostructural solvates. […]

A short description of data set [3]: Solubility assessment using free base Hydrate Form 2. The conditions noted are these: RT (cell says RT, head 50° C.). The protocol: The best solvent systems (clear solutions) were methanol:anisole 1:1 and DMSO (10 volumes, at RT), dioxane (10 volumes, 50° C.), chloroform (20 volumes, RT). […]
The nature of data set [4]: Storage at 40° C./75% RH (solid-state stability). The conditions noted are these: for Stability on storage at 40° C./75% RH: 1 week, solid form by XRPD; for Storage 40° C./75% RH: salt screen solids stored 1 week, outcome / XRPD pattern after storage.
Experimental: The crystalline solids were filtered, dried at ambient conditions, and stored at 40° C./75% RH for 1 week and analyzed by ^1H NMR/IC.
Samples from the screen using amorphous free base Compound 1 were analysed by ^1H-NMR and DSC, and re-analysis by XRPD was also carried out after drying at 50° C./vacuum and storage at 40° C./75% RH (the same sample was dried and stored at elevated humidity).

As to `CC(=O)O.COc1cc(-c2cccc3cc([C@H](C)Nc4nc(N)ncc4C#N)n(-c4ccccc4)c(=O)c23)ccn1.COc1cc(-c2cccc3cc([C@H](C)Nc4nc(N)ncc4C#N)n(-c4ccccc4)c(=O)c23)ccn1` [Batch 1 of Form 6], the “GVS: XRPD after the experiment” value in data set [1] is given as “anhydrous Form 4”. In addition, the “GVS: moisture on loading” value in data set [1] (25° C.) was found to be 6.3% w/w moisture on. Moreover, in data set [1] (second cycle), the “GVS: reversible moisture uptake between 0-90% RH” value is on record as “cycle shows 4.9%”.

In the case of `COc1cc(-c2cccc3cc([C@H](C)Nc4nc(N)ncc4C#N)n(-c4ccccc4)c(=O)c23)ccn1.O` [FB Hydrate Form 2], the XRPD result in data set [2] (1-butanol, Maturation) was “Crystalline Form 5”; in data set [2] (2-MeTHF, evaporation yielded oil, maturation of oil) it was “Crystalline Form 5”; in data set [2] (Acetone, Maturation), “Crystalline Form 5”; in data set [2] (DCM:MeOH 1:1, Crystallization in fridge), “Crystalline Form 5 + Form 1”; in data set [2] (DCM, Crystallization in fridge) it was “Crystalline Form 5”; in data set [2] (DMSO, no crystallization in fridge, set for evaporation), “Amorphous”. Further, the XRPD result in data set [2] (Dioxane, evaporation yielded oil, maturation of oil) is recorded as “Crystalline Form 5 + Form 3”; in data set [2] (EtOAc, Maturation) it was “Crystalline Form 5”; in data set [2] (EtOH/5% water, Maturation), “Crystalline Form 5”; in data set [2] (EtOH/water 1:1, Maturation) it was “Crystalline Form 2”; in data set [2] (EtOH, Maturation) it was “Crystalline Form 5”; in data set [2] (IPA, Maturation), “Crystalline Form 5”. Further, the XRPD result is reported as “Crystalline Form 5” in data set [2] (IPAc, Maturation); “Crystalline Form 5” in data set [2] (MIBK, Maturation); “Crystalline Form 5” in data set [2] (MeCN/5% water, Crystallization in fridge); “Crystalline Form 5” in data set [2] (MeOH/anisole, Crystallization in fridge); “Crystalline Form 5” in data set [2] (THF, Crystallization in fridge); “Crystalline Form 5” in data set [2] (acetonitrile, Maturation). Further, the XRPD entry in data set [2] (chloroform, cooling in fridge yielded oil, maturation of oil) is “Crystalline Form 5”. Besides, the Solubility entry is given as “✓ (RT)” in data set [3] (DMSO, 10 vols); “✓ (RT)” in data set [3] (MeOH/anisole, 10 vols); “✓ (RT)” in data set [3] (chloroform, 20 vols).

Turning to `COc1cc(-c2cccc3cc([C@H](C)Nc4nc(N)ncc4C#N)n(-c4ccccc4)c(=O)c23)ccn1` [Form 1 of the hydrochloride salt of Compound 1] [(S)-2-amino-4-((1-(8-(2-methoxypyridin-4-yl)-1-oxo-2-phenyl-1,2-dihydroisoquinolin-3-yl)ethyl)amino)pyrimidine-5-carbonitrile], the “Stability on storage at 40° C./75% RH” value in data set [4] is “deliquesces”; in data set [4] (listed as hydrochloride), “deliquesced”. Further, the “Storage 40° C./75% RH” value in data set [4] (listed as Hydrochloric acid) is given as “Deliquesced”.

Take `COc1cc(-c2cccc3cc([C@H](C)Nc4nc(N)ncc4C#N)n(-c4ccccc4)c(=O)c23)ccn1` [Form 1 of the isethionate salt of Compound 1] [(S)-2-amino-4-((1-(8-(2-methoxypyridin-4-yl)-1-oxo-2-phenyl-1,2-dihydroisoquinolin-3-yl)ethyl)amino)pyrimidine-5-carbonitrile]: the “Stability on storage at 40° C./75% RH” value is recorded as “deliquesces” in data set [4] and “deliquesced” in data set [4] (listed as isethionate). Further, in data set [4] (listed as 2-Hydroxyethane sulfonic acid), the “Storage 40° C./75% RH” value was “Deliquesced”.

Consider `COc1cc(-c2cccc3cc([C@H](C)Nc4nc(N)ncc4C#N)n(-c4ccccc4)c(=O)c23)ccn1` [Form 4 of Free Base Compound 1], for which the “GVS: moisture on loading” value in data set [1] (25° C.) was found to be 0.3 % w/w. In data set [1] (25° C., with hysteresis on desorption), the “GVS: uptaken between 70-90% RH” value is listed as 4.8 % w/w.

Consider `COc1cc(-c2cccc3cc([C@H](C)Nc4nc(N)ncc4C#N)n(-c4ccccc4)c(=O)c23)ccn1` [Form 4 of the free base of Compound 1, (S)-2-amino-4-((1-(8-(2-methoxypyridin-4-yl)-1-oxo-2-phenyl-1,2-dihydroisoquinolin-3-yl)ethyl)amino)pyrimidine-5-carbonitrile], for which the “GVS: form change with humidity” value in data set [1] (above 80% RH) is listed as “hydrates above 80% RH, but reversibly dehydrates back at 40% RH”. Further, in data set [4] (screening sample from H2O), the “XRPD after Storage at 40° C./75% RH” value was “No changes”.

Turning to `COc1cc(-c2cccc3cc([C@H](C)Nc4nc(N)ncc4C#N)n(-c4ccccc4)c(=O)c23)ccn1` [Form 6 of the free base of Compound 1, (S)-2-amino-4-((1-(8-(2-methoxypyridin-4-yl)-1-oxo-2-phenyl-1,2-dihydroisoquinolin-3-yl)ethyl)amino)pyrimidine-5-carbonitrile], the “GVS: form change with humidity” value in data set [1] (at 0% RH) is recorded as “Desolvation to the anhydrous Form 4”. Also, the “Stability on storage at 40° C./75% RH” value in data set [4] is “converts to Form 3”. In addition, in data set [4] (elevated humidity conditions, solid form), the “Storage at elevated humidity” value was “conversion to Hydrate Form 3”.

On to `CC(=O)c1ccc2c(c1)[C@@H]1C=CC[C@@H]1[C@H](c1cc3c(cc1Br)OCO3)N2` [amorphous material], for which the XRPD entry is “Crystalline Form 5” in data set [2] (2-MeTHF 200 μL, cycling RT/50° C.); “Crystalline Form 5” in data set [2] (Acetone 100 μL, cycling RT/50° C.); “Crystalline Form 5” in data set [2] (Acetonitrile 200 μL, cycling RT/50° C.); “Crystalline Form 5” in data set [2] (DCM 150 μL, cycling RT/50° C.); “Crystalline Form 5” in data set [2] (DCM:MeOH 1:1 150 μL, cycling RT/50° C.); “Crystalline Form 5” in data set [2] (DME 150 μL, cycling RT/50° C.). Further, the XRPD entry in data set [2] (EtOAc 100 μL, cycling RT/50° C.) is given as “Crystalline Form 5”; in data set [2] (EtOH 250 μL, cycling RT/50° C.), “Crystalline Form 5”; in data set [2] (EtOH/5% water 150 μL, cycling RT/50° C.), “Crystalline Form 5”; in data set [2] (H2O 450 μL, cycling RT/50° C.), “Partially crystalline =; also recorded: matches FB Pattern 4”; in data set [2] (IPA 150 μL, cycling RT/50° C.), “Crystalline Form 5”; in data set [2] (IPAc 300 μL, 16 hours maturation), “Crystalline Form 5”. Also, the XRPD entry in data set [2] (MIBK 100 μL, cycling RT/50° C.) is given as “Crystalline Form 5”; in data set [2] (MeCN/5% water 150 μL, cycling RT/50° C.) it was “Crystalline Form 5”; in data set [2] (MeOH 250 μL, cycling RT/50° C.), “Crystalline Form 5”; in data set [2] (TBME 300 μL, cycling RT/50° C.), “Crystalline Form 5”; in data set [2] (THF 150 μL, cycling RT/50° C.), “Crystalline Form 5”; in data set [2] (THF/5% water 150 μL, cycling RT/50° C.), “Crystalline Form 5”.
